Assays:
Type in all cases: biochemical, Thermosyntropha lipolytica
[1] = test system: Five-mutation enzyme (five-mutation D-type amino acid dehydrogenase, SEQ ID NO: 14); assay: D-amino acid synthesis activity (amination of 2-oxo acid), five-mutation enzyme; conditions: 5 mM 2-oxoacid, 200 mM ammonium chloride, glycine buffer pH 9.5, 50° C.; for D-amino acid synthesis activity (specific activity), Five-mutation enzyme, NADH: NADH 0.1 mM; for D-amino acid synthesis activity (specific activity), Five-mutation enzyme, NADPH: NADPH 0.1 mM
Description: The PCR reaction solution was prepared so as to contain 0.3 μM of each of the following primers and 50 ng of the above-described template DNA.
After PCR, 2 μL of DpnI was added to the reaction solution and treated at 37° C. for 1 hour, and E. coli DH5α was transformed using the solution after treatment. Transformed cells were coated on an LB agar plate containing antibiotic ampicillin (final concentration 100 mg/L) and cultured at 37° C. for 16 hours. The generated colonies were harvested and cultured in LB liquid medium containing ampicillin overnight. The strains were collected from the culture solution by centrifugation, and five-mutation D-type amino acid dehydrogenase/pET100 was collected according to the manufacturer's protocol using AccuPrep Plasmid Mini Extraction Kit (BIONEER).
(§1) The activity of the enzyme was measured by determining a decrease in absorbance at wavelength of 340 nm of NADPH or NADH […] by the catalytic reaction of the enzyme and determining the enzymatic activity by the determined decrease in absorbance as an indicator. […] The absorbance was measured by an ultraviolet-visible spectrophotometer UV-1800 (available from SHIMADZU). […]

[2] = test system: Six-mutation enzyme (Asp94Ser, Met154Leu, Val158Gly, Thr173Ile, Arg183Met, His229Asn; SEQ ID NO: 8); assay: D-amino acid synthesis activity (amination of 2-oxo acid), six-mutation enzyme; conditions: 5 mM 2-oxoacid, 200 mM ammonium chloride, glycine buffer pH 9.5, 50° C.; for D-amino acid synthesis activity (specific activity), Six-mutation enzyme, NADH: NADH 0.1 mM; for D-amino acid synthesis activity (specific activity), Six-mutation enzyme, NADPH: NADPH 0.1 mM
Description: Using this as a template, the gene of the enzyme was amplified by PCR using “PrimeSTAR Max DNA Polymerase” available from Takara Bio Inc. PCR was performed according to the manufacturer's instructions. The PCR reaction solution was prepared so as to contain 0.3 μM of each of the following primers and 50 ng of the above-described template DNA.
According to the manufacturer's protocol, the purified amplification product was incorporated into a pET100 vector (I available from Invitrogen) of a plasmid for protein expression to construct a six-mutation D-type amino acid dehydrogenase/pET100. The expression vector was constructed so as to incorporate a six-mutation D-type amino acid dehydrogenase gene derived from T. lipolytica downstream of the T7 promoter and […], and upstream of the T7 terminator.
as §1

[3] = test system: Wild type D-type amino acid dehydrogenase derived from T. lipolytica; assay: D-amino acid synthesis activity (amination of 2-oxo acid), wild type enzyme; conditions: 5 mM 2-oxoacid, 200 mM ammonium chloride, glycine buffer pH 9.5, 50° C.; for D-amino acid synthesis activity (specific activity), Wild type, NADH: NADH 0.1 mM; for D-amino acid synthesis activity (specific activity), Wild type, NADPH: NADPH 0.1 mM
Description: as §1

O=C(O)CCC(=O)C(=O)O [2-oxoglutaric acid/D-glutamic acid, 2-oxoglutaric acid]
D-amino acid synthesis activity (specific activity), Five-mutation enzyme, NADH [1]: No Activity
D-amino acid synthesis activity (specific activity), Five-mutation enzyme, NADPH [1]: 0.039 ± 0.0073 µmol/min/mg
D-amino acid synthesis activity (specific activity), Six-mutation enzyme, NADH [2]: No Activity
D-amino acid synthesis activity (specific activity), Six-mutation enzyme, NADPH [2]: 0.067 ± 0.0046 µmol/min/mg
D-amino acid synthesis activity (specific activity), Wild type, NADH [3]: No Activity
D-amino acid synthesis activity (specific activity), Wild type, NADPH [3]: 0.27 ± 0.010 µmol/min/mg

O=C(O)CC(=O)C(=O)O [2-oxobutanedioic acid/D-aspartic acid, 2-oxobutanedioic acid]
D-amino acid synthesis activity (specific activity), Five-mutation enzyme, NADH [1]: 0.14 ± 0.014 µmol/min/mg
D-amino acid synthesis activity (specific activity), Five-mutation enzyme, NADPH [1]: 0.60 ± 0.035 µmol/min/mg
D-amino acid synthesis activity (specific activity), Six-mutation enzyme, NADH [2]: 0.12 ± 0.010 µmol/min/mg
D-amino acid synthesis activity (specific activity), Six-mutation enzyme, NADPH [2]: 0.32 ± 0.0082 µmol/min/mg
D-amino acid synthesis activity (specific activity), Wild type, NADH [3]: 0.43 ± 0.015 µmol/min/mg
D-amino acid synthesis activity (specific activity), Wild type, NADPH [3]: 5.7 ± 0.60 µmol/min/mg

CCC(=O)C(=O)O [2-oxobutanoic acid/D-2-aminobutyric acid, 2-oxobutanoic acid]
D-amino acid synthesis activity (specific activity), Five-mutation enzyme, NADH [1]: 0.044 ± 0.0049 µmol/min/mg
D-amino acid synthesis activity (specific activity), Five-mutation enzyme, NADPH [1]: 0.13 ± 0.0020 µmol/min/mg
D-amino acid synthesis activity (specific activity), Six-mutation enzyme, NADH [2]: 0.032 ± 0.0023 µmol/min/mg
D-amino acid synthesis activity (specific activity), Six-mutation enzyme, NADPH [2]: 0.077 ± 0.0041 µmol/min/mg
D-amino acid synthesis activity (specific activity), Wild type, NADH [3]: 0.13 ± 0.0041 µmol/min/mg
D-amino acid synthesis activity (specific activity), Wild type, NADPH [3]: 2.3 ± 0.030 µmol/min/mg

CC(C)CC(=O)C(=O)O [2-oxo-4-methylpentanoic acid/D-leucine, 2-oxo-4-methylpentanoic acid]
D-amino acid synthesis activity (specific activity), Five-mutation enzyme, NADH [1]: 0.11 ± 0.0027 µmol/min/mg
D-amino acid synthesis activity (specific activity), Five-mutation enzyme, NADPH [1]: 0.20 ± 0.0071 µmol/min/mg
D-amino acid synthesis activity (specific activity), Six-mutation enzyme, NADH [2]: No Activity
D-amino acid synthesis activity (specific activity), Six-mutation enzyme, NADPH [2]: 0.11 ± 0.0013 µmol/min/mg
D-amino acid synthesis activity (specific activity), Wild type, NADH [3]: 0.27 ± 0.0064 µmol/min/mg
D-amino acid synthesis activity (specific activity), Wild type, NADPH [3]: 0.061 ± 0.00082 µmol/min/mg

O=C(O)C(=O)Cc1ccccc1 [2-oxo-3-phenylpropanoic acid]
D-amino acid synthesis activity (specific activity), Five-mutation enzyme, NADH [1]: No Activity
D-amino acid synthesis activity (specific activity), Five-mutation enzyme, NADPH [1]: 0.068 ± 0.0039 µmol/min/mg
D-amino acid synthesis activity (specific activity), Six-mutation enzyme, NADH [2]: No Activity
D-amino acid synthesis activity (specific activity), Six-mutation enzyme, NADPH [2]: 0.036 ± 0.0037 µmol/min/mg
D-amino acid synthesis activity (specific activity), Wild type, NADH [3]: 0.020 ± 0.0053 µmol/min/mg
D-amino acid synthesis activity (specific activity), Wild type, NADPH [3]: No Activity

CCCCCCC(=O)C(=O)O [2-oxooctanoic acid]
D-amino acid synthesis activity (specific activity), Five-mutation enzyme, NADH [1]: 0.017 ± 0.0027 µmol/min/mg
D-amino acid synthesis activity (specific activity), Five-mutation enzyme, NADPH [1]: 0.47 ± 0.012 µmol/min/mg
D-amino acid synthesis activity (specific activity), Six-mutation enzyme, NADH [2]: 0.0098 ± 0.0047 µmol/min/mg
D-amino acid synthesis activity (specific activity), Six-mutation enzyme, NADPH [2]: 0.35 ± 0.0093 µmol/min/mg
D-amino acid synthesis activity (specific activity), Wild type, NADH [3]: No Activity
D-amino acid synthesis activity (specific activity), Wild type, NADPH [3]: 0.101 ± 0.010 µmol/min/mg

CSCCC(=O)C(=O)O [2-oxo-4-(methylthio) butanoic acid]
D-amino acid synthesis activity (specific activity), Five-mutation enzyme, NADH [1]: No Activity
D-amino acid synthesis activity (specific activity), Five-mutation enzyme, NADPH [1]: 0.18 ± 0.0022 µmol/min/mg
D-amino acid synthesis activity (specific activity), Six-mutation enzyme, NADH [2]: No Activity
D-amino acid synthesis activity (specific activity), Six-mutation enzyme, NADPH [2]: 0.089 ± 0.0038 µmol/min/mg
D-amino acid synthesis activity (specific activity), Wild type, NADH [3]: 0.0033 ± 0.0016 µmol/min/mg
D-amino acid synthesis activity (specific activity), Wild type, NADPH [3]: 0.059 ± 0.0065 µmol/min/mg

Source: patent US11098288B2, “D-type amino acid dehydrogenase” (Kureha Corporation, priority 2017, dated 2021)
